Legend:
cafeteria-fed rats = experiment: Diet-induced obesity (cafeteria diet) rat model, oral tungstate in drinking water; format: in vivo, male Wistar rats
Description: The so-called “cafeteria diet” consists of an offering of freshly and highly palatable supermarket food items with high fat and/or carbohydrate content in addition to standard laboratory chow. […] Moreover, it is also known that ingestion of a cafeteria diet results in increased thermogenesis and fat deposition.
(§1) For the present experiments, male Wistar rats (IFFA CREDO), weighing 0.20–0.22 kg, were caged individually in a 12:12-h light-dark cycle, temperature and humidity controlled environment. After an adaptation period of 1 week the animals were divided into two dietary groups. One group was fed standard chow diet (2.7% in fat content, type AO4 from Panlab, Barcelona, Spain) and the second group was fed a cafeteria diet (30% in fat content). The cafeteria diet consisted of a daily offering of cookies, liver pate, bacon, standard chow and whole milk supplemented with 333 g/l sucrose and 10 g/l of a mineral and vitamin complex (Gevral, Cynamid Ibérica, Madrid, Spain). All the food items were weighed and presented in excess.
An initial set of forty rats were divided into two sets of dietary conditions, control (standard diet, n=15) and cafeteria (cafeteria diet, n=25), and fed for 30 days. In order to evaluate the effects of tungstate treatment, animals from each condition were divided into two new subsets: tungstate treated and tungstate untreated groups (simply treated and untreated in the following). The treated rats were given a solution of 2 mg/ml of sodium tungstate dihydrate in distilled water.
The treatment was carried out for 32 days. Blood glucose measurements as well as blood samples were collected before (days 0–30), during (days 31–62) and at the end of the experimental period. Selective food items consumption (corrected by the amount of water lost for each) and the weight of all animals were recorded daily.
At the end of the treatment period, rats from treated (n=8) and untreated (n=7) cafeteria-fed groups and rats from both treated (n=3) and untreated (n=3) standard-fed groups were killed and several tissues (gastrocnemius muscle, intercapular brown adipose tissue (iBAT), epididimal white adipose tissue (WAT), liver, pancreas and brain) were excised, weighed, cleaned and rapidly frozen in liquid nitrogen or fixed in formol 10% for future studies.
Remaining rats (n=19) were withdrawn the tungstate treatment, but maintained the dietary conditions, in order to start a 35 day recovery period. After this time animals were killed and processed as above. Selective food items consumption (corrected by the amount of water lost for each) and the weight of all animals were recorded daily.
The data obtained in this study allowed to establish an obesity criteria. […]

standard-fed rats = experiment: Standard-fed rats, oral tungstate in drinking water; format: in vivo, male Wistar rats
Description: as §1
An initial set of forty rats were divided into two sets of dietary conditions, control (standard diet, n=15) and cafeteria (cafeteria diet, n=25), and fed for 30 days. […]
The treatment was carried out for 32 days. […] Selective food items consumption (corrected by the amount of water lost for each) and the weight of all animals were recorded daily. […]
Remaining rats (n=19) were withdrawn the tungstate treatment, but maintained the dietary conditions, in order to start a 35 day recovery period. […] Selective food items consumption (corrected by the amount of water lost for each) and the weight of all animals were recorded daily.

[1] = Solubility in water (description); format: physicochemical

O.O.[Na+].[Na+].[O]=[W](=[O])([O-])[O-] [sodium tungstate dihydrate]
food intake (cafeteria-fed rats; cafeteria diet rat model, during weight loss): without decrease of food intake | body weight increase (cafeteria-fed rats; cafeteria-fed rats, 2 mg/ml sodium tungstate dihydrate in distilled water, treatment period days 31-62, vs untreated): significantly diminished body weight increase | body weight increase difference between treated and untreated rats at day 97 (cafeteria-fed rats; cafeteria-fed rats, end of 35 day recovery period): quite important | body weight after withdrawal of treatment (reversibility) (cafeteria-fed rats; cafeteria-fed rats, recovery period days 63-97): started to gain body weight quickly | body weight increase (standard-fed rats; 2 mg/ml sodium tungstate dihydrate in distilled water, treatment period days 31-62, vs untreated): significantly diminished body weight increase | body weight after withdrawal of treatment (reversibility) (standard-fed rats; recovery period days 63-97): started to gain body weight quickly | solubility in water [1]: easily dissolved in water

Source: patent US7122209B2, “Oral compositions for the treatment of non-diabetic obese mammals, including humans” (Quimica Farmaceutica Bayer S.A., priority 2001, dated 2006)
